According to US9149546B2, “Compound having affinity for amyloid” (NIHON MEDI-PHYSICS CO., LTD., priority 2011, dated 2015):

What was measured:
[1] = tested on: site of amyloid deposition in brain slice of AD patients; assay: Confirmation of compound avidity for brain slice of AD patients by autoradiography; format: binding, human; settings: 5 μm brain slice of AD patients, 10 kBq/mL, 30 minutes, room temperature; amyloid deposition confirmed by immunostaining
Description: The following experiment was carried out in order to examine whether amyloid in brain of AD patients can be imaged by the compound of the present invention. • (1) A 5 μm-thick brain slice of AD patients was prepared from a brain tissue of AD patients available from Analytical Biological Services Inc. (United States). • (2) The brain slice was immersed in PBS for 15 minutes, 5 minutes and 5 minutes each. […] Then, it was immersed in a 1% BSA-containing PBS solution, a PBS solution and a PBS solution each for 5 minutes to wash the brain slice. The washed brain slice was sufficiently dried, and then exposed to an imaging plate for 16 hours, and then autoradiogram image analysis was carried out by use of a Bio-imaging Analyzer (type: BAS-2500; manufactured by FUJIFILM Corporation) (FIG. 3, FIG. 4, FIG. 5). • (3) Immunostaining at a site of amyloid deposition with an anti-amyloid antibody was carried out using adjacent slices. Anti-Human Amyloidβ (N) (82E1) Mouse IgG MoAb (Immuno-Biological Laboratories Co., Ltd.) was used as the anti-amyloid antibody, and Anti-Mouse IgG (H+L) Goat IgG Fab′-HRP (Immuno-Biological Laboratories Co., Ltd.) was used as a secondary antibody. […] Results

[2] = Measurement of partition coefficient based on the octanol extraction method; format: physicochemical; settings: water saturated 1-octanol / 1-octanol saturated water, 20 to 25±2° C.
Description: Water saturated 1-octanol and 1-octanol saturated water were added to the equilibrated vessel each in an amount of 200 μL, 400 μL or 800 μL. The equilibrated vessel was subjected to stirring, and then was shaken for 5 minutes (20 to 25±2° C., 20 rpm). […] Using the obtained count, log Poctanol was calculated in accordance with the following equation (1).

[3] = target: amyloid aggregates in the brain of AD patients (Homo sapiens, UniProt P05067); assay: Binding assay using brain gray matter homogenate of AD patients (Kd, Bmax); settings: mixed solution of Compound 1 and Compound 3, 0.2 to 25 nmol/L; brain gray matter homogenate (frontal lobe) of AD patients; 22° C., 3 hours
Sequence of amyloid aggregates in the brain of AD patients (P05067 672-713): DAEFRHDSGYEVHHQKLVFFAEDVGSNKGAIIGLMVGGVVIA
Description: Calculation of Dissociation Constant (Hereinafter, Referred to as Kd) and Maximum Binding Amount (Hereinafter, Referred to as Bmax) Resulting from Binding Assay Using Brain Tissue of Patients of Alzheimer's Disease (Hereinafter, Referred to as AD)
The assay was conducted using a brain gray matter homogenate of AD patients, which was prepared from a brain tissue (Frontal lobe) of AD patients commercially available from Analytical Biological Services Inc. (United States).
A mixed solution of Compound 1 (about 35 kBq/100 μL) and Compound 3 (62.5 nmol/L) was diluted with a 0.1% bovin serum albumin (hereinafter referred to as BSA)-containing 5 mmol/L phosphate buffer saline solution, and prepared to have a concentration of 0.2 nmol/L to 25 nmol/L in the reaction solution. To each well of a 96-well microplate, 100 μL of a 0.1% BSA-containing 5 mmol/L phosphate buffer saline solution and 100 μL of the prepared mixed solution of Compound 1 and Compound 3 were added. […] The filter after filtration was washed with a 0.1% BSA-containing 5 mmol/L phosphate buffer saline solution (200 μL×3 times), and then radioactivity remaining in the filter was measured with an Autowell Gamma system (type: ARC-7001, manufactured by Aloka). […] The resulting count was analyzed with GraphPad Prism Ver. 5 (manufactured by GraphPad Software, Inc.), and binding parameter (Kd, Bmax) was calculated.

[4] = Measurement of transferability into brain and clearance; format: in vivo, male Wistar rats; settings: rats, intravenous injection; for Radioactive accumulation per unit weight, After 2 min. / Radioactive accumulation per unit weight, After 5 min. / Radioactive accumulation per unit weight, After 15 min. / Radioactive accumulation per unit weight, After 30 min. / Radioactive accumulation per unit weight, After 60 min.: brain; for Radioactive accumulation per unit weight, After 2 min.: 2 min after injection; for Radioactive accumulation per unit weight, After 5 min.: 5 min after injection; for Radioactive accumulation per unit weight, After 15 min.: 15 min after injection; for Radioactive accumulation per unit weight, After 30 min.: 30 min after injection; for Radioactive accumulation per unit weight, After 60 min.: 60 min after injection; for transferability to brain and clearance from brain (in words): 2 to 60 min
Description: The sample solution was injected under non-anesthesia into the tail vein of male Wistar rats (8-week old) (dosage: 0.2 mL, dosed radioactivity: 7.4 MBq equivalent). The rats were sacrificed by decapitating under non-anesthesia to sample bloods and brains 2, 5, 15, 30 and 60 minutes after the injection. Brains were subjected to measurement of mass of brains and further subjected to measurement of radioactivity (hereinafter referred to as A in this Example) with a single channel analyzer (detector type SP-20 manufactured by OHYO KOKEN KOGYO Co., Ltd.). Further, the radioactivity level of the rest of the whole body including blood was measured in the same manner as above (hereinafter referred to as B in this Example). Using these measurement results, the amount of radioactive accumulation per unit weight of brain (% ID/g) at the respective time points were calculated in accordance with the following formula (2).
Separately, a solution of [^123I]-IMPY dissolved in a physiological saline solution containing 50 mmol/L of L-cysteine hydrochloride (radioactive concentration: 37 MBq/mL) was prepared. The same procedure as above was carried out to calculate the amount of radioactive accumulation per unit weight of brain (% ID/g) at the respective time points.
Meanwhile, in this Example, three animals were used for the experiment at the respective time points.

Compound	binding to the site of amyloid deposition on autoradiogram [1]	logP at 5 min ([2]; 1-octanol/water, read-out: logPoctanol value)	logPoctanol value [2]	Bmax [3] [fmol/mg protein]	Radioactive accumulation per unit weight, After 2 min. [4] [% ID/g]	Radioactive accumulation per unit weight, After 5 min. [4] [% ID/g]	Radioactive accumulation per unit weight, After 15 min. [4] [% ID/g]	Radioactive accumulation per unit weight, After 30 min. [4] [% ID/g]	Radioactive accumulation per unit weight, After 60 min. [4] [% ID/g]	transferability to brain and clearance from brain (in words) [4]
[123I]c1ccc2nc(-c3ccc(-n4ccnn4)cc3)cn2c1 [Compound 1, [^123I]-6-iodo-2-[4-(1H-1,2,3,-triazole-1-yl)phenyl]imidazo[1,2-a]pyridine]	confirmed	1.98	1.98	2242	1.085	0.701	0.260	0.100	0.034	excellent transferability to brain and rapid clearance from brain
[^123I]-6-iodo-2-[4-(1H-pyrrole-1-yl)phenyl]imidazo[1,2-a]pyridine [Compound 2]	confirmed	–	–	–	1.201	1.065	0.745	0.349	0.113	excellent transferability to brain and rapid clearance from brain
CN(C)c1ccc(-c2cn3cc(I)ccc3n2)cc1 [[^123I]-IMPY, 6-iodo-2-[4′-(N,N-dimethylamino)phenyl]imidazo[1,2-a]pyridine, reference compound]	confirmed	–	–	–	1.644	1.192	0.554	0.225	0.085	–
